According to patent US10995260B2, “Methods for determining an optimal surfactant structure for oil recovery” (University of Wyoming, priority 2017, dated 2021):

Assay: Dynamic interfacial tension of surfactant solution/crude oil (rising/captive bubble tensiometry)
Type: physicochemical
Details: time for IFT to reach half of its value between γo and γm; 0.1% wt surfactant, municipal water/crude oil, ambient conditions
Protocol: Interfacial tension tests were carried out in accordance with the invention. Dynamic IFT and contact angles were measured using rising/captive bubble tensiometry enhanced by image acquisition with a high-resolution Charged Coupled Device (CCD) digital camera and apochromatically-corrected lens. The apparatus includes a Hastelloy measurement cell, a Hastelloy dual-cylinder pulse-free Quizix pump (to provide constant flow rate and pressure), a temperature control module, a data acquisition computer, an oven, and an in-line density meter (Anton Paar DMA HPM) to measure the density of fluids at actual experimental conditions. The system tolerates reservoir conditions with pressures and temperatures up to 10,000 psi and 150° C., respectively (V. Mirchi, S. Saraji, L. Goual, M. Piri, Dynamic interfacial tension and wettability of shale in the presence of surfactants at reservoir conditions, Fuel, vol. 148, pp. 127-138, 2015).
For IFT measurements, after establishing ambient (e.g., 14.7 psi and 20° C.) or reservoir conditions (e.g., 6840 psi and 120° C.) in a cell saturated with brine, a bubble of crude oil was created inside the measurement cell through a needle (0.3-1.6 mm outside diameter). Images of oil bubbles were captured at 5-second intervals to measure dynamic interfacial tension. IFT values were obtained by fitting the drop profile to the Young-Laplace equation using Axisymetric Drop Shape Analysis (ADSA) software.
A series of dynamic IFT measurements with municipal water and crude oil were performed at ambient conditions to examine the surface activity of selected surfactants. FIGS. 5A-5F present dynamic IFT results of a homologous series of nonionic surfactant solutions with 0.1% wt concentration, which is above the critical micelle concentration (CMC) of all the surfactants studied. The size of the hydrophobic and hydrophilic parts of the surfactants were altered independently and their impact on oil/brine interfacial tension was investigated.
In addition, the dynamic IFT of certain surfactants was measured at reservoir conditions. In particular, the impact of elevated temperatures and pressures on the performance of these surfactants was evaluated. IFT values of crude oil and surfactant solutions were measured at 6840 psi and 120° C.
As shown by Equation 1, three typical regions of dynamic IFT reduction exist: (I) induction region, (II) rapid fall region, and (III) mesoequilibrium region (X. Y. Hua, M. J. Rosen, Dynamic surface tension of aqueous surfactant solutions: I. Basic parameters, Journal of Colloid and Interface Science, vol. 124, no. 2, pp. 652-659, 1988). log(γ0−γt)−log(γt−γm)=n log t−n log t* (1)
In Equation 1, γt is the IFT of surfactant solution at time t, γm is the mesoequilibrium interfacial tension (when γt is almost stabilized), γo is the IFT in the absence of surfactant, and t* is the required time for IFT to reach half of its value between γo and γm. The value of n is a constant number related to the structure of surfactants and correlates to the difference between surfactants' adsorption and desorption. Increasing nonionic surfactants' polyoxyethylene chain length reduces the value of n (T. Gao, M. J. Rosen, Dynamic surface tension of aqueous surfactant solutions: 7. physical significance of dynamic parameters and the induction period, Journal of Colloid and Interface Science, vol. 172, no. 1, pp. 242-248, 1995).

Substance	t*
CH3(CH2)8-10(OC2H4)2.5OH [CH2 8-10, EO 2.5]	16.5 min
CH3(CH2)8-10(OC2H4)6-6.5OH [CH2 8-10, EO 6]	12.3 min
CH3(CH2)8-10(OC2H4)8.3OH [CH2 8-10, EO 8]	11.6 min
CH3(CH2)11-13(OC2H4)8.2OH [CH2 11-14, EO 8.2]	7.83 min
CH3(CH2)11-14(OC2H4)3OH [CH2 11-14, EO 3]	23 min
CH3(CH2)11-14(OC2H4)7.25OH [CH2 11-14, EO 7.25]	9.3 min
